Reference: US9321742B2, “N1-cyclic amine-N5-substituted biguanide derivatives, methods of preparing the same and pharmaceutical composition comprising the same” (IMMUNOMET THERAPEUTICS INC., priority 2011, dated 2016)

Experiments:
AMPKα = assay: Measurement of AMPK-activation effect (AMPKα Thr172 phosphorylation immunoassay in MCF7 cells); assay type: cell-based, human; details: 24 hours; for AMPK activation effect 10 uM (%) / AMPK activation effect 50 uM (%): relative to untreated cells
Method: MCF7 cells derived from human breast cancer cells (commercially available from the Korean Cell Line Bank) were used, and the AMPK (5′-AMP-activated protein kinase alpha)-activation effect of the biguanide derivative was confirmed using an AMPKα immunoassay kit (Invitrogen, Catalog No. KH00651).
MCF7 cells were cultured in a DMEM medium supplemented with 10% fetal bovine serum. Thereafter, the cultured MCF7 cells were put into a 6-well plate with approximately 5×10^5 cells per well and cultured in an incubator supplied with 5% CO2. Culture media were treated with the derivatives synthesized in the examples at contents of 5, 10 and 50 μM, and then cultured for 24 hours. Metformin hydrochloride was used as the control, and the culture media were treated with 0.05, 0.5, 1, 2, 5 and 10 mM metformin hydrochloride, and then tested in the same manner as described in the derivatives synthesized in the examples. Subsequently, the cells were lysed according to a method presented in the operation manual of the AMPKα immunoassay kit, and 20 μg of a cell lysate was then yielded through protein assay. Thereafter, the AMPK activation effect was obtained by determining the degree of phosphorylation of 172nd threonine residue (Thr172) of the AMPKα from the cell lysate according to the method presented in the operation manual of the AMPKα immunoassay kit. […] A curve graph showing AMPK activation according to the concentration of the treated compounds was plotted based on the obtained AMPKα activation results, the concentration (activation concentration 150, AC150) value of the compound whose AMPK activation reached 150% was calculated using a GraphPad Prism 5.0 program, and the degrees of AMPK activation were obtained when concentrations of the treated biguanide derivatives were 10 μM and 50 μM and the metformin hydrochloride was 50 μM.

HCT116 cells = assay: Measurement of effect of inhibiting cancer cell proliferation (MTT); assay type: cell-based; details: Homo sapiens; for inhibition at 100 µM: HCT-116, 100 uM, 48 hours, read-out: Cell Growth Inhibition (%) at 100 uM; for GI50: HCT-116, 48 hours
Text: HCT116 cells derived from human colorectal cancer (commercially available from the Korean Cell Line Bank) were used, and the effect of inhibiting cancer cell proliferation of the biguanide derivative was confirmed by measuring the concentration value (cell growth inhibition concentration, GIC50) at which cell growth was inhibited by 50% using a 3-(4,5-dimethylthiazol-2-yl)-2,5-[…] bromide (MTT) reagent.
First, HCT116 cells were put on a 96-well plate and cultured in a DMEM medium containing 10% fetal bovine serum for 16 hours so that the cellcount in each well was approximately 5,000. Subsequently, to obtain the GIC50 value of each compound, culture media were treated with 100 μM, 25 μM, 6.25 μM, 1.56 μM or 0.39 μM of the compound, and then cultured for 48 hours. At this time, some of the compounds were treated with 200 μM instead of 100 μM. Metformin hydrochloride was used as the control, and the culture media were treated with 25, 12.5, 2.5, 0.5, 0.1 mM metformin hydrochloride, and then tested in the same manner as described in the derivatives synthesized in the examples. In order to determine whether the cells survived after treatment with the compound, MTT was added to the culture media which were then cultured for another 3 hours. Formed formazane crystals were dissolved using dimethyl sulfoxide (DMSO), and the absorbance of the resulting solution was measured at 560 nm. After the 48-hours culture, the ratio of the cell count cultured on a well plate not treated with the compound to the living cell count on a well plate treated with the compounds synthesized in the examples was indicated as cell viability (%) according to each treated concentration. A cell viability curve graph was plotted and the concentration (GIC50) value of the compound at which the growth was inhibited by 50% was calculated to confirm the effect of inhibition of cancer cell proliferation. Also, the cell growth viability (%) when the concentration of the treated biguanide derivative and the metformin hydrochloride as the control were 100 uM was shown.

| SMILES | AMPK activation effect 10 uM (%) (AMPKα) | AC150 (concentration at which AMPK activation reached 150%) (AMPKα) [µM] | melting point [°C] | inhibition at 100 µM (HCT116 cells) [%] | GI50 (HCT116 cells) [µM] | AMPK activation effect 50 uM (%) (AMPKα) |
| --- | --- | --- | --- | --- | --- | --- |
| Cl.N=C(NCc1c(F)cccc1F)NC(=N)N1CCCCC1 [Example 51, N1-piperidine-N5-(2,6-difluoro)benzyl biguanide hydrochloride] | 179 | 2.1 | 229 to 232 | 96.8 | > 100 |  |
| CNC(=N)NC(=N)N1CCCCC1.Cl [Example 8, N1-piperidine-N5-methyl biguanide hydrochloride] | 139 | 9.0 | 211 to 212 | 50.5 | 88.6 | 500 |
| Cl.N=C(NCc1ccc(C(F)(F)F)c(F)c1)NC(=N)N1CCCCC1 [Example 46, N1-piperidine-N5-(3-fluoro-4-trifluoromethyl)benzyl biguanide hydrochloride] | 331 | 1.1 | 264 to 266 | 101 | 21.3 | 389 |
| Cl.N=C(NCCc1cccs1)NC(=N)N1CCCCC1 [Example 56, N1-piperidine-N5-(thiophene-2-yl)ethyl biguanide hydrochloride] | 612 | 9.0 | 176 to 178 | 97.6 |  |  |
| Cl.N=C(NCc1ccc(OC(F)(F)F)c(Cl)c1)NC(=N)N1CCCCC1 [Example 50, N1-piperidine-N5-(3-chloro-4-trifluoromethoxy)benzyl biguanide hydrochloride] | 259 | 8.8 | 240 to 241 | 97 | 5.7 |  |
| Cl.N=C(NCCc1ccccc1)NC(=N)N1CCCCCC1 [Example 59, N1-azepane-N5-(phenethyl)biguanide hydrochloride] | 194 | 0.7 | 211 to 213 | 56.6 | 21.9 | 373 |
| Cl.N=C(NCc1ccc(F)cc1)NC(=N)N1CCCCC1 [Example 30, N1-piperidine-N5-(4-fluoro)benzyl biguanide hydrochloride] | 143 | 13.1 | 250 to 251 | 47 | > 100 | 278 |
| Cl.N=C(NCc1ccc(F)c(F)c1)NC(=N)N1CCCCC1 [Example 52, N1-piperidine-N5-(3,4-difluoro)benzyl biguanide hydrochloride] | 327 | 3.8 | 230 to 232 | 46.5 | 76.4 | 703 |
| COc1ccc(CNC(=N)NC(=N)N2CCCCC2)cc1.Cl [Example 28, N1-piperidine-N5-(4-methoxy)benzyl biguanide hydrochloride] | 258 | 3.9 | 213 to 214 | 28.3 | > 100 | 628 |
| Cl.N=C(NCc1ccc(Cl)cc1)NC(=N)N1CCCC1 [Example 31, N1-pyrrolidine-N5-(4-chloro)benzyl biguanide hydrochloride] | 304 | 2.3 | 250 to 251 | 65.9 | 17.6 | 776 |
| Cl.N=C(NC(=N)N1CCCCC1)NC1CCCCC1 [Example 16, N1-piperidine-N5-cyclohexyl biguanide hydrochloride] | 167 | 8.0 | 214 to 215 | 49.1 | > 100 | 486 |
| Cl.N=C(NCCc1ccc(F)cc1)NC(=N)N1CCCCCC1 [Example 60, N1-azepane-N5-((4-fluoro)phenethyl)biguanide hydrochloride] | 744 | 0.7 | 211 to 212 | 73.7 | 22.4 | 721 |
| Cl.N=C(NCCc1ccc(Cl)cc1)NC(=N)N1CCCCCC1 [Example 61, N1-azepane-N5-((4-chloro)phenethyl)biguanide hydrochloride] | 1130 | 0.5 | 181 to 183 | 94.3 | 19.8 |  |
| Cl.N=C(NC(=N)N1CCCCC1)NC1CCCC1 [Example 14, N1-piperidine-N5-cyclopentyl biguanide hydrochloride] | 114 | 38.3 | 154 to 155 | 30.4 | > 100 | 157 |
| Cc1ccc(CNC(=N)NC(=N)N2CCCCC2)cc1.Cl [Example 27, N1-piperidine-N5-(4-methyl)benzyl biguanide hydrochloride] | 435 | 2.3 | 241 to 243 | 64.9 | 70.5 | 947 |
| CCCCNC(=N)NC(=N)N1CCCCC1.Cl [Example 11, N1-piperidine-N5-butyl biguanide hydrochloride] |  | >50 | 113 to 114 | 42.7 | > 100 | 130 |
| Cl.N=C(NCc1ccc(Br)cc1)NC(=N)N1CCCC1 [Example 34, N1-pyrrolidine-N5-(4-bromo)benzyl biguanide hydrochloride] | 467 | 42.4 | 267 to 268 | 97.3 | 92.8 | 639 |
| Cl.N=C(NCc1ccc(Cl)c(Cl)c1)NC(=N)N1CCCCC1 [Example 55, N1-piperidine-N5-(3,4-dichloro)benzyl biguanide hydrochloride] | 443 | 0.9 | 242 to 244 | 97.7 | 10.3 | 830 |
| Cl.N=C(NCc1ccc(Cl)c(C(F)(F)F)c1)NC(=N)N1CCCCC1 [Example 45, N1-piperidine-N5-(4-chloro-3-trifluoromethyl)benzyl biguanide hydrochloride] | 162 | 1.7 | 259 to 261 | 96.9 | 8.2 | 232 |
| Cl.N=C(NCc1ccco1)NC(=N)N1CCCC1 [Example 22, N1-pyrrolidine-N5-(furan-2-ylmethyl)biguanide hydrochloride] | 101 | 18.3 | 242 to 243 | 43.9 | > 100 | 293 |
